According to patent US20230293470A1, “APPLICATION OF THYROID HORMONES AND ITS ANALOGUES IN PREPARATION OF DRUGS FOR TREATING ALPHA-THALASSEMIA” (SHANGHAI SPH RARE DISEASE PHARMACEUTICAL CO., LTD., priority 2020, published 2023):

Experiments:
[1] = tested on: zeta-globin gene (hbae5) expression in zebrafish embryos; assay: Whole-mount mRNA in situ hybridization (WISH) of zeta-globin gene (hbae5) in zebrafish embryos; format: in vivo; settings: 5 μmon, from 96 hours post fertilization, 24 hours treatment
Method: (§1) K562 cells were cultured in RPMI 1640 medium supplemented with 10% (v/v) fetal bovine serum; Hemin was dissolved into 0.2 mol/L NaOH solution, and the working concentration for treating K562 cells is 20 μmon; Triac, T3 and T4 were dissolved into dimethyl sulfoxide (DMSO), and the working concentration for treating K562 cells and zebrafish embryos is 20 μmon and 5 μmon, respectively.
During the development of zebrafish embryos, Triac, T3 and T4 were incubated with the zebrafish embryos at 96 hours post fertilization. After treatment with Triac, T3 and T4 for 24 hours, respectively, zebrafish embryos were fixed by 4% paraformaldehyde. The expression of zeta-globin gene (hbae5) was detected by Whole-mount mRNA in situ hybridization (WISH).

[2] = tested on: zeta-globin gene (hbae5) expression in zebrafish embryos; assay: qPCR of zeta-globin gene (hbae5) expression in zebrafish embryos; format: in vivo; settings: 5 μmon, from 96 hours post fertilization, 24 hours treatment
Method: as §1
During the development of zebrafish embryos, Triac, T3 and T4 were incubated with the zebrafish embryos at 96 hours post fertilization. After treatment with Triac, T3 and T4 for 24 hours, respectively, zebrafish embryos were collected. TRIzol reagent (Invitrogen) was used to extract total RNA, then a reverse transcription kit (ReverTra Ace, TOYOBO) was used to synthesize cDNA, and finally, a SYBRGreen Realtime PCR Master Mix (TOYOBO) reagent was used to perform quantitative PCR.
(§2) A quantitative PCR reaction system was as follows:
(§3) Conditions for a quantitative PCR reaction were as follows: • Hot start: 95° C., 10 minutes; • Denaturation: 95° C., 10 seconds; and • Annealing/stretching: 60° C., 30 seconds. • 40 cycles.
(§4) Dissolution Curve Analysis.

[3] = tested on: zeta-globin gene (HBZ) expression in K562 cells; assay: qPCR of zeta-globin gene (HBZ) expression in hemin-treated K562 cells; format: cell-based, human; settings: hemin 20 μmon plus Triac 20 μmon, 72 hours
Method: as §1
K562 cells were treated with hemin or hemin plus Triac for 72 hours, respectively, centrifugation was performed at 2000 rpm for 5 minutes to collect cells, a TRIzol reagent (Invitrogen) was used to extract total RNA, then a reverse transcription kit (ReverTra Ace, TOYOBO) was used to synthesize cDNA, and finally, a SYBR Green Realtime PCR Master Mix (TOYOBO) reagent was used to perform quantitative PCR.
as §2, §3, §4

SMILES	induction of expression of zeta-globin gene (hbae5), WISH [1]	up-regulation of expression of zeta-globin gene (hbae5), qPCR [2]	up-regulation of expression of zeta-globin gene (HBZ), qPCR [3]
N[C@@H](Cc1cc(I)c(Oc2ccc(O)c(I)c2)c(I)c1)C(=O)O [T3, 3,3′,5-Triiodo-L-thyronine]	significantly induce	31 folds	–
N[C@@H](Cc1cc(I)c(Oc2cc(I)c(O)c(I)c2)c(I)c1)C(=O)O [T4, 3,3′,5,5′-tetraiodothyronine]	significantly induce	41 folds	–
O=C(O)Cc1cc(I)c(Oc2ccc(O)c(I)c2)c(I)c1 [Triac, 2-[4-(4-hydroxy-3-iodophenoxy)-3,5-diiodophenyl] acetic acid]	significantly induce	76 folds	50.9 folds
